Laboratory results: PubChem BioAssay (NCI)
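Protocol summary: plate cells (96-well), add compound at 5 concentrations, incubate 48 h, interpolate endpoints linearly. GI50 marks 50% less growth. TGI denotes the concentration required for complete inhibition of growth.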

Columns and labels:
Assay in all cases: inhibition of tumour cell growth, NCI panel, 48 h
SF-268 CNS = tested on: SF-268 CNS
U251 CNS = tested on: U251 CNS
UACC-257 melanoma = tested on: UACC-257 melanoma
MDA-MB-468 breast = tested on: MDA-MB-468 breast
SNB-19 CNS = tested on: SNB-19 CNS
HT29 colon = tested on: HT29 colon
MDA-MB-231 breast = tested on: MDA-MB-231 breast
K-562 leukemia = tested on: K-562 leukemia
BT-549 breast = tested on: BT-549 breast
A498 renal = tested on: A498 renal
HCC-2998 colon = tested on: HCC-2998 colon
LOX IMVI melanoma = tested on: LOX IMVI melanoma
SK-MEL-28 melanoma = tested on: SK-MEL-28 melanoma
PC-3 prostate = tested on: PC-3 prostate
MOLT-4 leukemia = tested on: MOLT-4 leukemia
MCF7 breast = tested on: MCF7 breast
MDA-MB-435 = tested on: MDA-MB-435
HCT-15 colon = tested on: HCT-15 colon
NCI-H226 lung = tested on: NCI-H226 lung
DU-145 prostate = tested on: DU-145 prostate
SF-295 CNS = tested on: SF-295 CNS
KM12 colon = tested on: KM12 colon
NCI-H522 lung = tested on: NCI-H522 lung
SK-MEL-2 melanoma = tested on: SK-MEL-2 melanoma
RXF 393 renal = tested on: RXF 393 renal
OVCAR-3 ovarian = tested on: OVCAR-3 ovarian
786-0 renal = tested on: 786-0 renal
SK-OV-3 ovarian = tested on: SK-OV-3 ovarian
NCI-H23 lung = tested on: NCI-H23 lung
SNB-75 CNS = tested on: SNB-75 CNS
T-47D breast = tested on: T-47D breast
OVCAR-8 ovarian = tested on: OVCAR-8 ovarian
ACHN renal = tested on: ACHN renal
CAKI-1 renal = tested on: CAKI-1 renal
SK-MEL-5 melanoma = tested on: SK-MEL-5 melanoma
HCT-116 colon = tested on: HCT-116 colon
SR leukemia = tested on: SR leukemia
UACC-62 melanoma = tested on: UACC-62 melanoma
UO-31 renal = tested on: UO-31 renal
MALME-3M melanoma = tested on: MALME-3M melanoma
OVCAR-4 ovarian = tested on: OVCAR-4 ovarian
RPMI-8226 leukemia = tested on: RPMI-8226 leukemia
OVCAR-5 ovarian = tested on: OVCAR-5 ovarian
A549 NSCLC = tested on: A549 NSCLC
NCI-H460 lung = tested on: NCI-H460 lung
SN12C renal = tested on: SN12C renal
SW-620 colon = tested on: SW-620 colon
HOP-92 NSCLC = tested on: HOP-92 NSCLC
EKVX NSCLC = tested on: EKVX NSCLC
COLO 205 colon = tested on: COLO 205 colon
SF-539 CNS = tested on: SF-539 CNS
HOP-62 NSCLC = tested on: HOP-62 NSCLC
IGROV1 ovarian = tested on: IGROV1 ovarian
HS 578T breast = tested on: HS 578T breast
TK-10 renal = tested on: TK-10 renal
HL-60(TB) leukemia = tested on: HL-60(TB) leukemia
M14 melanoma = tested on: M14 melanoma
CCRF-CEM leukemia = tested on: CCRF-CEM leukemia

CCOC(=O)C1=C(N)N(c2ccccc2)C2=C(C(=O)CC(C)(C)C2)C1c1ccc(Cl)cc1Cl (stereo unspecified) gave a GI50 (SF-268 CNS) of 53.2 µM, a TGI (SF-268 CNS) of over 100 µM and a GI50 (U251 CNS) of 24.6 µM. The TGI (U251 CNS) was over 100 µM, the GI50 (UACC-257 melanoma) was 28.8 µM and the TGI (UACC-257 melanoma) was over 100 µM. The GI50 (MDA-MB-468 breast) was 6.83 µM, the TGI (MDA-MB-468 breast) was 53.8 µM and the GI50 (SNB-19 CNS) was 29.2 µM. For the same molecule, the TGI (SNB-19 CNS) was over 100 µM, the GI50 (HT29 colon) was 19.8 µM and the TGI (HT29 colon) was over 100 µM. It also gave a GI50 (MDA-MB-231 breast) of 33.5 µM, a TGI (MDA-MB-231 breast) of over 100 µM and a GI50 (K-562 leukemia) of 7.23 µM. It also gave a TGI (K-562 leukemia) of over 100 µM, a GI50 (BT-549 breast) of 45.8 µM and a TGI (BT-549 breast) of over 100 µM. It also gave a GI50 (A498 renal) of 45.4 µM, a TGI (A498 renal) of over 100 µM and a GI50 (HCC-2998 colon) of 27.7 µM. For the same molecule, the TGI (HCC-2998 colon) was over 100 µM, the GI50 (LOX IMVI melanoma) was 32.4 µM and the TGI (LOX IMVI melanoma) was over 100 µM. The GI50 (SK-MEL-28 melanoma) was 66.7 µM, the TGI (SK-MEL-28 melanoma) was over 100 µM and the GI50 (PC-3 prostate) was 4.14 µM. It also gave a TGI (PC-3 prostate) of over 100 µM, a GI50 (MOLT-4 leukemia) of 9.56 µM and a TGI (MOLT-4 leukemia) of over 100 µM. For the same molecule, the GI50 (MCF7 breast) was 17.7 µM, the TGI (MCF7 breast) was over 100 µM and the GI50 (MDA-MB-435) was 32.1 µM. It also gave a TGI (MDA-MB-435) of over 100 µM, a GI50 (HCT-15 colon) of 15.2 µM and a TGI (HCT-15 colon) of over 100 µM. The GI50 (NCI-H226 lung) was 23.4 µM, the TGI (NCI-H226 lung) was over 100 µM and the GI50 (DU-145 prostate) was 67.1 µM. The TGI (DU-145 prostate) was over 100 µM, the GI50 (SF-295 CNS) was 20.3 µM and the TGI (SF-295 CNS) was over 100 µM. It also gave a GI50 (KM12 colon) of 23.6 µM, a TGI (KM12 colon) of over 100 µM and a GI50 (NCI-H522 lung) of 22.2 µM. It also gave a TGI (NCI-H522 lung) of over 100 µM, a GI50 (SK-MEL-2 melanoma) of 17 µM and a TGI (SK-MEL-2 melanoma) of 58 µM. The GI50 (RXF 393 renal) was 13.8 µM, the TGI (RXF 393 renal) was over 100 µM and the GI50 (OVCAR-3 ovarian) was 26.2 µM. The TGI (OVCAR-3 ovarian) was over 100 µM, the GI50 (786-0 renal) was 42.4 µM and the TGI (786-0 renal) was over 100 µM. For the same molecule, the GI50 (SK-OV-3 ovarian) was 33.5 µM, the TGI (SK-OV-3 ovarian) was over 100 µM and the GI50 (NCI-H23 lung) was 25.1 µM. For the same molecule, the TGI (NCI-H23 lung) was over 100 µM, the GI50 (SNB-75 CNS) was 53.3 µM and the TGI (SNB-75 CNS) was over 100 µM. For the same molecule, the GI50 (T-47D breast) was 10.4 µM, the TGI (T-47D breast) was over 100 µM and the GI50 (OVCAR-8 ovarian) was 37.2 µM. The TGI (OVCAR-8 ovarian) was over 100 µM, the GI50 (ACHN renal) was 18.3 µM and the TGI (ACHN renal) was over 100 µM. The GI50 (CAKI-1 renal) was 6.82 µM, the TGI (CAKI-1 renal) was over 100 µM and the GI50 (SK-MEL-5 melanoma) was 12.4 µM. The TGI (SK-MEL-5 melanoma) was 25.6 µM, the GI50 (HCT-116 colon) was 7.89 µM and the TGI (HCT-116 colon) was over 100 µM. The GI50 (SR leukemia) was 14.7 µM, the TGI (SR leukemia) was over 100 µM and the GI50 (UACC-62 melanoma) was 12.6 µM. The TGI (UACC-62 melanoma) was over 100 µM, the GI50 (UO-31 renal) was 11.5 µM and the TGI (UO-31 renal) was over 100 µM. For the same molecule, the GI50 (MALME-3M melanoma) was 29.3 µM, the TGI (MALME-3M melanoma) was over 100 µM and the GI50 (OVCAR-4 ovarian) was 28.3 µM. It also gave a TGI (OVCAR-4 ovarian) of over 100 µM, a GI50 (RPMI-8226 leukemia) of 7.07 µM and a TGI (RPMI-8226 leukemia) of over 100 µM. The GI50 (OVCAR-5 ovarian) was 72.6 µM, the TGI (OVCAR-5 ovarian) was over 100 µM and the GI50 (A549 NSCLC) was 18.8 µM. For the same molecule, the TGI (A549 NSCLC) was over 100 µM, the GI50 (NCI-H460 lung) was 13.9 µM and the TGI (NCI-H460 lung) was over 100 µM. The GI50 (SN12C renal) was 30.8 µM, the TGI (SN12C renal) was over 100 µM and the GI50 (SW-620 colon) was 29 µM. It also gave a TGI (SW-620 colon) of over 100 µM, a GI50 (HOP-92 NSCLC) of 3.89 µM and a TGI (HOP-92 NSCLC) of 65.5 µM. The GI50 (EKVX NSCLC) was 26.2 µM, the TGI (EKVX NSCLC) was over 100 µM and the GI50 (COLO 205 colon) was 20.6 µM. The TGI (COLO 205 colon) was 91.3 µM, the GI50 (SF-539 CNS) was 37.8 µM and the TGI (SF-539 CNS) was over 100 µM. It also gave a GI50 (HOP-62 NSCLC) of 48.8 µM, a TGI (HOP-62 NSCLC) of over 100 µM and a GI50 (IGROV1 ovarian) of 79.7 µM. The TGI (IGROV1 ovarian) was over 100 µM, the GI50 (HS 578T breast) was 76.8 µM and the TGI (HS 578T breast) was over 100 µM. The GI50 (TK-10 renal) was 56.3 µM, the TGI (TK-10 renal) was over 100 µM and the GI50 (HL-60(TB) leukemia) was 5.95 µM. For the same molecule, the TGI (HL-60(TB) leukemia) was over 100 µM, the GI50 (M14 melanoma) was 34.8 µM and the TGI (M14 melanoma) was over 100 µM. The GI50 (CCRF-CEM leukemia) was 31 µM and the TGI (CCRF-CEM leukemia) was over 100 µM.

With NS(=O)(=O)c1ccc(N=Nc2c(O)[nH]c3ccc(C(=O)NCc4ccncc4)cc23)cc1 the GI50 (MDA-MB-468 breast) was over 25 µM and the TGI (MDA-MB-468 breast) was over 25 µM.

Work on CCN1CCN(c2cc(C)nc(N(CCCNc3ccnc4cc(Cl)ccc34)Cc3ccc4c(c3)OCO4)n2)CC1 yielded a GI50 (MDA-MB-468 breast) of 1.82 µM and a TGI (MDA-MB-468 breast) of 4.25 µM.

CSc1ncc(Br)c(Sc2nc(N)nc3nc[nH]c23)n1 was tested, and the GI50 (MDA-MB-468 breast) was 2.36 µM and the TGI (MDA-MB-468 breast) was 19.7 µM.

CC(C)c1nc(N(C)S(C)(=O)=O)nc(-c2ccc(F)cc2)c1/C=C/[C@@H](O)C[C@@H](O)CC(=O)O was tested, and the GI50 (MDA-MB-468 breast) was 18.5 µM and the TGI (MDA-MB-468 breast) was 69.3 µM.

C=C/C(C)=C/C[C@]1(C)[C@H](C)[C@@H](OC(=O)CCC)[C@H](O)[C@@]23C(=C[C@H](OC)C[C@@H]12)[C@@H](OC(=O)CCC)O[C@H]3OC(C)=O gave a GI50 (MDA-MB-468 breast) of 0.337 µM and a TGI (MDA-MB-468 breast) of 1.24 µM.

COC(=O)C(CCC(=O)CCl)N1C(=O)c2ccccc2C1=O (stereo unspecified) gave a GI50 (MDA-MB-468 breast) of 2.11 µM and a TGI (MDA-MB-468 breast) of 5.61 µM.

For COc1cccc(CN(C)c2ccc(CO)c(Cl)c2)c1, the GI50 (MDA-MB-468 breast) was 0.0209 µM and the TGI (MDA-MB-468 breast) was 0.06 µM.

O=C1C2=C(C(=O)c3cnccc31)C1C=CC2CC1 (stereo unspecified) was tested, and the GI50 (MDA-MB-468 breast) was 0.185 µM and the TGI (MDA-MB-468 breast) was 0.416 µM.

In the case of C=C1C(=O)O[C@H]2[C@H]1CC/C(COC(=O)NCc1ccc(OC)cc1)=C\CC[C@@]1(C)O[C@@H]21, the GI50 (MDA-MB-468 breast) is reported as 0.352 µM and the TGI (MDA-MB-468 breast) is reported as 1.75 µM.

Molecule CN1CCN(CCOc2ccc(-c3cnc4c(-c5cccc(F)c5)cnn4c3)cc2)CC1 has a GI50 (MDA-MB-468 breast) of 1.67 µM and a TGI (MDA-MB-468 breast) of 3.25 µM.
